{
  "source": "patent US9993414B2",
  "about": "“Oral care composition comprising an Amadori compound” (Colgate-Palmolive Company, priority 2012, dated 2018)",
  "key": {"[1]": {"tested_on": "S. mutans (ATCC #25175)", "assay": "Inhibition of glucose metabolism with Streptococcus mutans (GC-MS of remaining α- and β-glucose)", "type": "cell-based", "conditions": "for Glucose inhibition (%) from Example 5: versus Comparative Example 1 (no Amadori compound)", "procedure": "In this Example, the ability of Amadori compound from the reaction of glucose with glycine to inhibit glucose metabolism with Streptococcus mutans was investigated. A stock glucose solution of 0.4 wt % glucose dissolved in distilled water (0.4 g/100 mL) was prepared. A stock Amadori compound from the reaction of glucose with glycine solution of 4.0 wt % Amadori compound from the reaction of glucose with glycine dissolved in distilled water (0.4 g/10 mL) was prepared. A bacterial solution was prepared as follows: S. mutans (ATCC #25175) was cultured overnight in TSB medium and then the resultant bacterial pellet was re-suspended bacterial to OD610=0.8 (a concentration with an optical reading of 0.8 at 610 nm for a 1-cm light path) with phosphate buffered saline (pH=7.4) (PBS). In accordance with Example 5, a test sample comprising 1 mL of the bacterial solution, 0.5 mL of the Amadori compound from the reaction of glucose with glycine solution and 0.5 mL of the glucose solution was subjected to incubation at a temperature of 37° C., representing normal human body temperature. Then, 200 μL of the test sample was transferred into individual HPLC vials after 10 minutes of the incubation period, after 30 minutes of the incubation period, and after 60 minutes of the incubation period. The HPLC vial cap was used to seal the vial. Immediately the HPLC vials were placed in a 100° C. water bath for about 5 minutes to denaturize the enzymes. The resultant products were subjected to gas chromatography-mass spectrometry (GC-MS) testing and analysis to determine the amounts of the α- and β-glucose forms present. In Table 1, the number of counts during MS detection for each respective α- and β-glucose form detected in the respective sample at the respective incubation time is indicated, the number of counts representing the amount of the respective glucose form present. In Comparative Example 1, the testing of Example 5 was repeated but on a control sample comprising 1 mL of the bacterial solution, 0.5 mL of the glucose solution and 0.5 mL of deionized water. In other words, Comparative Example 1 had no Amadori compound from the reaction of glucose with glycine. The control sample was also subjected to incubation at a temperature of 37° C. for the same respective time periods."}, "[2]": {"tested_on": "S. mutans (ATCC #25175)", "assay": "Inhibition of biofilm formation, crystal violet staining in saliva-coated 96-well plate", "type": "cell-based, Streptococcus mutans", "conditions": "for Inhibition against biofilm formation (in words): 1 wt % glucose and 2 wt % Amadori compound, versus no Amadori compound; for Average absorbance (590 nm), amount of biofilm: test sample 1 wt % glucose and 2 wt % Amadori compound, co-incubated overnight at 37° C., lower absorbance = less biofilm", "procedure": "In this Example, the ability of Amadori compound from the reaction of glucose with glycine to inhibit biofilm formation was investigated. A sample of cultured S. mutans (ATCC #25175) bacterium was grown in TSB medium overnight and subsequently centrifuged to form a pellet, and then the centrifuged S. mutans was re-suspended with TSB (trypticase soy broth) containing 1% glucose and adjusted to OD610=0.5 (a concentration with an optical reading of 0.5 at 610 nm for a 1-cm light path). A 50 microliter sample of the re-suspended S. mutans (OD610=0.5) was co-incubated with a 50 microliter test sample. The test sample contained 1 wt % of glucose and 2 wt % of Amadori compound from the reaction of glucose with glycine. The 100 μL total of the re-suspended S. mutans (OD610=0.5) and test sample, representing a clarified saliva, was co-incubated in a 96-well plate which was pre-coated with the clarified saliva and then left overnight at 37° C. After the co-incubation period, the supernatant liquid was aspirated from the well plate. A 50 microliter amount of crystal violet was added to each well and permitted to stain any biofilm for a period of 10 minutes. The well plate was washed with 100 μL of PBS. The amount of biofilm was determined by irradiating the well plate with electromagnetic radiation having a wavelength of 590 nm and measuring the absorbance. The lower the absorbance reading, the less the amount of biofilm detected."}, "[3]": {"conditions": "10 minutes incubation at 37° C., same sample"}, "[4]": {"conditions": "30 minutes incubation at 37° C., same sample"}, "[5]": {"conditions": "60 minutes incubation at 37° C., same sample"}},
  "data": [
    {"smiles": "O=C(O)CNCC(=O)[C@@H](O)[C@H](O)[C@H](O)CO", "note": "[Example 1, N-(1-deoxy-fructos-1-yl)glycine]", "values": [
      {"measurement": "α-glucose, number of counts during MS detection", "setting": "[1]; 10 minutes incubation at 37° C., 1 mL bacterial solution + 0.5 mL 4.0 wt % compound solution + 0.5 mL 0.4 wt % glucose solution", "result": 1753564, "unit": "counts"},
      {"measurement": "Total glucose (α + β), number of counts during MS detection", "setting": "[1]; [3]", "result": 5564912, "unit": "counts"},
      {"measurement": "β-glucose, number of counts during MS detection", "setting": "[1]; [3]", "result": 3811348, "unit": "counts"},
      {"measurement": "Glucose inhibition (%) from Example 5", "setting": "[1]; 10 minutes incubation", "result": 56.4, "unit": "%"},
      {"measurement": "Total glucose (α + β), number of counts during MS detection", "setting": "[1]; [4]", "result": 6220880, "unit": "counts"},
      {"measurement": "α-glucose, number of counts during MS detection", "setting": "[1]; [4]", "result": 1912144, "unit": "counts"},
      {"measurement": "β-glucose, number of counts during MS detection", "setting": "[1]; [4]", "result": 4308736, "unit": "counts"},
      {"measurement": "Glucose inhibition (%) from Example 5", "setting": "[1]; 30 minutes incubation", "result": 59.9, "unit": "%"},
      {"measurement": "Total glucose (α + β), number of counts during MS detection", "setting": "[1]; [5]", "result": 5403991, "unit": "counts"},
      {"measurement": "α-glucose, number of counts during MS detection", "setting": "[1]; [5]", "result": 1724203, "unit": "counts"},
      {"measurement": "β-glucose, number of counts during MS detection", "setting": "[1]; [5]", "result": 3679788, "unit": "counts"},
      {"measurement": "Glucose inhibition (%) from Example 5", "setting": "[1]; 60 minutes incubation", "result": 70.1, "unit": "%"},
      {"measurement": "Inhibition of glucose metabolization / degradation (in words)", "setting": "[1]; co-incubated with S. mutans and glucose, versus no Amadori compound", "result": "inhibited glucose metabolization"},
      {"measurement": "Inhibition of glucose metabolism", "setting": "[1]; within the incubation time period of from 10 to 60 minutes", "result": "at least 56%"},
      {"measurement": "Inhibition against biofilm formation (in words)", "setting": "[2]; listed as Amadori compound from the reaction of glucose with glycine", "result": "very strong inhibition"},
      {"measurement": "Average absorbance (590 nm), amount of biofilm", "setting": "[2]", "result": 0.2885}
    ]},
    {"smiles": "N=C(N)NCCC[C@H](NCC(=O)[C@@H](O)[C@H](O)[C@H](O)CO)C(=O)O", "note": "[Example 2, N-(1-deoxy-fructos-1-yl) arginine]", "values": [
      {"measurement": "Inhibition against biofilm formation (in words)", "setting": "[2]; listed as Amadori compound from the reaction of glucose with arginine", "result": "relatively weak inhibition"},
      {"measurement": "Average absorbance (590 nm), amount of biofilm", "setting": "[2]", "result": 1.2808}
    ]},
    {"smiles": "O=C(O)CC[C@H](NCC(=O)[C@@H](O)[C@H](O)[C@H](O)CO)C(=O)O", "note": "[Example 4, N-(1-deoxy-fructos-1-yl)glutamic acid]", "values": [
      {"measurement": "Inhibition against biofilm formation (in words)", "setting": "[2]; listed as Amadori compound from the reaction of glucose with glutamic acid", "result": "very strong inhibition"},
      {"measurement": "Average absorbance (590 nm), amount of biofilm", "setting": "[2]", "result": 0.5476}
    ]}
  ]
}
